# ± gives the expanded uncertainty stated by the source.
# Details: for viscosity / mass density: 101.33 kPa, Liquid; for viscosity: Falling or rolling sphere viscometry; for mass density: Vibrating tube method; for Normal melting temperature: Crystal, DTA
viscosity (293.15 K) [mPa·s],mass density (293.15 K) [kg/m3],viscosity (298.15 K) [mPa·s],mass density (298.15 K) [kg/m3],viscosity (303.15 K) [mPa·s],mass density (303.15 K) [kg/m3],viscosity (308.15 K) [mPa·s],mass density (308.15 K) [kg/m3],viscosity (313.15 K) [mPa·s],mass density (313.15 K) [kg/m3],viscosity (318.15 K) [mPa·s],mass density (318.15 K) [kg/m3],viscosity (323.15 K) [mPa·s],mass density (323.15 K) [kg/m3],viscosity (328.15 K) [mPa·s],mass density (328.15 K) [kg/m3],viscosity (333.15 K) [mPa·s],mass density (333.15 K) [kg/m3],Normal melting temperature [°C],SMILES
36.96 ± 0.79,929.96 ± 1.9,28.35 ± 0.61,926.43 ± 1.9,22.04 ± 0.47,922.87 ± 1.9,17.32 ± 0.37,919.28 ± 1.8,13.83 ± 0.3,915.66 ± 1.8,11.14 ± 0.24,912 ± 1.8,9.099 ± 0.2,908.31 ± 1.8,7.521 ± 0.16,904.57 ± 1.8,6.283 ± 0.14,900.78 ± 1.8,,OCC1CCCCC1 [cyclohexylmethanol]
1.485 ± 0.032,748.82 ± 1.5,1.359 ± 0.029,745.2 ± 1.5,1.25 ± 0.027,741.57 ± 1.5,1.155 ± 0.025,737.94 ± 1.5,1.073 ± 0.023,734.3 ± 1.5,0.998 ± 0.022,730.64 ± 1.5,0.932 ± 0.02,726.98 ± 1.5,0.873 ± 0.019,723.31 ± 1.5,0.819 ± 0.018,719.64 ± 1.4,-8.20 ± 6,CCCCCCCCCCCC [dodecane]
6.89 ± 0.15,822.24 ± 1.6,5.805 ± 0.12,818.74 ± 1.6,4.941 ± 0.11,815.22 ± 1.6,4.233 ± 0.09,811.68 ± 1.6,3.648 ± 0.077,808.11 ± 1.6,3.165 ± 0.067,804.52 ± 1.6,2.762 ± 0.059,800.88 ± 1.6,2.423 ± 0.051,797.2 ± 1.6,2.137 ± 0.045,793.49 ± 1.6,-34.10 ± 6,CCCCCCCO [heptan-1-ol]
0.727 ± 0.016,769.33 ± 1.5,0.681 ± 0.015,765 ± 1.5,0.64 ± 0.014,760.67 ± 1.5,0.604 ± 0.013,756.32 ± 1.5,0.571 ± 0.012,751.95 ± 1.5,0.542 ± 0.012,747.56 ± 1.5,0.515 ± 0.011,743.15 ± 1.5,0.491 ± 0.011,738.73 ± 1.5,0.469 ± 0.01,734.28 ± 1.5,-125.30 ± 6,CC1CCCCC1 [methylcyclohexane]

# Source: the NIST ThermoML archive (doi:10.1021/acs.jced.6b00688)
